Experimental data from US20110054040A1, “Bicyclic Triterpenoid Iripallidal as a Novel Anti-Glioma and Anti-Neoplastic Therapy” (DEPARTMENT OF BIOTECHNOLOGY, priority 2008, published 2011).
Like-named read-outs stand apart in the source and are kept apart here.

Experiments:
RasGRP3 = molecular target: T1, RasGRP3 (Homo sapiens, UniProt Q8IV61); conditions: cited from earlier work
T1 sequence (Q8IV61 1-690): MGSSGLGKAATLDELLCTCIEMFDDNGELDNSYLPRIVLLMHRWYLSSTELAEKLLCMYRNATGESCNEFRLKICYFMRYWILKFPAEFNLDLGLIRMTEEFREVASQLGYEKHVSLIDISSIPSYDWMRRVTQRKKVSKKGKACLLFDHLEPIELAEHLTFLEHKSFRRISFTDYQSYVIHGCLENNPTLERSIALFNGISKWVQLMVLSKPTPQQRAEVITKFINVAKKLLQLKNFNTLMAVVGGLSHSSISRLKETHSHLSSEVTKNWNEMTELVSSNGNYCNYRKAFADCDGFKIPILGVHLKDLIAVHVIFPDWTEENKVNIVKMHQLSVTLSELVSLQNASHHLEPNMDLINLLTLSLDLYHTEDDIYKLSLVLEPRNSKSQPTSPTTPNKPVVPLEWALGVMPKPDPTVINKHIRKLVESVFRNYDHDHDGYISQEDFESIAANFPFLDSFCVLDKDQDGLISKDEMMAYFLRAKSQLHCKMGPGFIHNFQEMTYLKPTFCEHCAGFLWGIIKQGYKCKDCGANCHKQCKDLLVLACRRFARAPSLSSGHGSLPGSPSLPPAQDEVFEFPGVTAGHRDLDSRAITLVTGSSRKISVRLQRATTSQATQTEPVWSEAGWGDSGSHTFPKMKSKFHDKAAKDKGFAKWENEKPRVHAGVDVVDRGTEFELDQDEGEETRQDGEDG

protein kinase C alpha = protein kinase C alpha (Homo sapiens, UniProt P17252); conditions: cited from earlier work
ERK1/2 = conditions: downstream indicator of Ras activation, cited from earlier work
Ras [1] = assay: Ras activity (Ras-GTP pull-down with Raf-1 Ras binding domain) in glioma cells; assay type: cell-based, human; conditions: Iripallidal 20 μM, compared to the control
Description: In another embodiment the Ras activity was performed using a commercially available kit from Upstate Biotechnology (Temecula, Calif., USA). Briefly, glioma cell lines (2×10^6) treated with Iripallidal were lysed and the cleared lysates were incubated with bead-bound RAS binding domain of Raf-1 protein to precipitate Ras-GTP. The precipitates were subjected to SDS-PAGE and Western blotting.
Effect of Iripallidal on the level of GTP-bound Ras. The level of Ras-GTP in protein extracts of control and Iripallidal treated glioma cells was determined by the ability of Ras-GTP to bind to a specific protein domain of Raf in the form of a GST-fusion protein. […] IR1 denotes Iripallidal.

[2] = test system: U87MG, A172, LN229 and T98G cells; assay: MTS cell viability assay, glioma cell lines; assay type: cell-based, human; conditions: 24 hours, serum free media, in vitro
Description: In another embodiment GBM cell lines U87MG, A172, T98G, and LN229 were treated with different concentration of Iripallidal (in Dimethyl sulphoxide, DMSO) in serum free media for 24 hours and cell viability was assessed using the [3-(4,5-dimethylthiazol-2-yl)-5-(3-carboxymethoxy-phenyl)-2-(4-sulfophenyl)-2H-tetrazolium, inner salt] (MTS) assay. Values were expressed as percent cell viability relative to control.
(§1) Glioblastoma cell lines U87MG, A172, T98G, and LN229; breast cancer cell line MCF7, cervical cancer cell line HeLa, hepatocellular carcinoma cell line HepG2, acute myeloid leukemia THP1, colon carcinoma cell line HT-29 and acute myeloid leukemic cell line THP1 were obtained from American Type Culture Collection and cultured in DMEM supplemented with 10% fetal bovine serum. On attaining semi-confluence, cells were switched to serum free media and after 12 hours, cells were treated with different concentration of Iripallidal (in DMSO) in serum free media for 24 hours. Following treatment, the cells were processed for Western blot analysis. […]
(§2) Cell viability was assessed using the [3-(4,5-dimethylthiazol-2-yl)-5-(3-carboxymethoxy-phenyl)-2-(4-sulfophenyl)-2H-tetrazolium, inner salt] […] After 4 hours of incubation the absorbance reflecting reduction of MTS by viable cells was determined at 490 nm. Values were expressed as a percentage relative to those obtained in controls.

[3] = test system: MCF-7, HeLa, HepG2, THP1, HT-29 cells; assay: MTS cell viability assay, breast, cervical, hepatocellular, myeloid leukemia and colon cancer cell lines; assay type: cell-based, human
Description: In another embodiment colon cancer cell line HT29, breast cancer line MCF-7, cervical cancer cell line HeLa, hepatocellular carcinoma cell line HepG2 and acute myeloid leukemic cell line THP1 were treated with different concentration of Iripallidal (in Dimethyl sulphoxide, DMSO) in serum free media for 24 hours and cell viability was assessed using the MTS assay. Values were expressed as a percentage relative to those obtained in controls.
as §1, with “hours.” for “hours. Following treatment, the cells were processed for Western blot analysis.”
as §2

Ras [4] = assay: Western blot analysis of Ras expression in glioma cells; assay type: cell-based, human; conditions: GBM cell lines (A172, U87MG); Iripallidal 20 μM
Description: In another embodiment, protein isolated from glioma cells were treated with Iripallidal and electrophoresed on 6% to 10% polyacrylamide gel, Western blotting was performed and expression of Ras determined as described previously.
Glioblastoma cell lines U87MG, A172, T98G, and LN229; breast cancer cell line MCF7, cervical cancer cell line HeLa, hepatocellular carcinoma cell line HepG2, acute myeloid leukemia THP1, colon carcinoma cell line HT-29 and acute myeloid leukemic cell line THP1 were obtained from American Type Culture Collection and cultured in DMEM supplemented with 10% fetal bovine serum. On attaining semi-confluence, cells were switched to serum free media and after 12 hours, cells were treated with different concentration of Iripallidal (in DMSO) in serum free media for 24 hours. Following treatment, the cells were processed for Western blot analysis. DMSO treated cells were used as controls.
Protein from whole cell lysates were isolated as described previously. Twenty to fifty μg of protein isolated from cells treated with Iripallidal was electrophoresed on 6% to 10% polyacrylamide gel. Western blotting was performed and Ras expression was determined as described. The blots were stripped and reprobed with anti-β-actin to determine equivalent loading.

[5] = test system: panel of 60 human cancer cell lines; conditions: NCI 60 cell line screen; cited from earlier work
normal human monocytes = assay: MTS cell viability assay, normal human monocytes; assay type: cell-based; conditions: 24 hours, serum free media
Description: In another embodiment normal human monocytes were treated with different concentration of Iripallidal in serum free media for 24 hours and cell viability was assessed using the MTS assay. Values were expressed as a percentage relative to those obtained in controls.
Whole blood (5 ml) was drawn from normal human volunteers and mononuclear cells were separated by Histopaque density gradient centrifugation. Briefly, blood was diluted twice with phosphate buffered saline (PBS) and layered over Histopaque (Sigma, Mo., USA) and centrifuged at 1500 rpm for 20 mins at room temperature. Peripheral blood mononuclear cells (PBMC) were collected carefully at the interface of Histopaque and plasma, diluted five times with PBS and centrifuged at 1500 rpm for 10 mins. PBMC thus pelleted were washed twice with PBS and seeded onto glass petri dishes and allowed to adhere for 3 hrs. Non adherent cells were removed by gentle washing with PBS twice and the adherent monocytes were used in MTS assay.
as §2, with “salt] (MTS) as described earlier.” for “salt]”

## C=C(/C=C/C=C(/CCC=C(C)C)COC(C)=O)[C@@H]1CC[C@]2([C@H](CCCO)/C(=C(/C)C=O)CC[C@]2(C)O)[C@@H]1O [NSC 631941, reference compound]
RasGRP3
  binding to RasGRP3: bound
Protein kinase C alpha
  binding to protein kinase C alpha: bound
ERK1/2
  phosphorylation of ERK1/2: induced phosphorylation of ERK1/2

## CC1=CC[C@H](C)C(C)(C)C1/C=C/C(C)=C/CC[C@@]1(CO)[C@H](CCCO)/C(=C(/C)C=O)CC[C@]1(C)O (single isomer, unassigned; (-)) [Iripallidal]
RasGRP3
  binding to RasGRP3: binds to RasGRP3
RasGRP3; listed as NSC 631939
  binding to RasGRP3: bound
Ras [1]
  Ras activity (Ras-GTP level): An increase Ras activity was observed
[2]
  viability of glioblastoma cell lines: decreased the viability of glioblastoma cell lines significantly
[3]; 24 hours, serum free media
  proliferation of breast, colon, cervical, liver and myeloid cancer cells: inhibited the proliferation
[3]; cancer cell lines, not specified further
  reduction of proliferation of cancer cell lines: 50-70%
Protein kinase C alpha
  binding to protein kinase C alpha: bound
Ras [4]
  Ras levels: elevated both Ras levels
[5]
  anti-proliferative activity: micromolar to nanomolar range
ERK1/2
  phosphorylation of ERK1/2: induces phosphorylation of ERK1/2 in a Ras dependent manner
ERK1/2; listed as NSC 631939
  phosphorylation of ERK1/2: induced phosphorylation of ERK1/2
Normal human monocytes
  viability of normal human monocytes: does not effect the viability
